{
  "source": "patent US10828250B2",
  "about": "“Topical formulation” (LIMEWAY PHARMA DESIGN LIMITED, priority 2015, dated 2020)",
  "key": {"[1]": {"experiment": "saturated solubility of corticosteroids in liquid silicones and in propylene glycol:glycerol(:water) mixtures", "type": "physicochemical", "conditions": "for saturated solubility in propylene glycol:glycerol mixtures: as glycerol is added to propylene glycol, FIG. 8; for saturated solubility in propylene glycol:glycerol:water mixtures: as water is added to propylene glycol:glycerol 70:30, FIG. 9; for saturated solubility in liquid silicones: range of liquid silicones including caprylyl methicone, FIG. 1", "procedure": "Similarly, active solubility may be reduced in the non-volatile residual phase. […] As glycerol is added to propylene glycol the solubility of FP and MF decreases. […] As water is added to propylene glycol:glycerol 70:30 the solubility of FP and MF decreases. Water may be present in certain embodiments of the formulation or may be present in the residual phase due to uptake of transepidermal water. Although water is a highly volatile solvent, humectant glycols retain water depending upon ambient conditions."}, "[2]": {"type": "physicochemical", "text": "As described previously, diffusion coefficient-enhancing excipients (DC enhancers) for use in the present invention commonly comprise alcohol, acid or ester derivatives of C8-C22 hydrocarbons.\nIn the acid and alcohol series, FIG. 2, as carbon chain length increases, solubility in caprylyl methicone decreases to less than 0.1% w/w at C18, such that these higher carbon chain lengths may be considered unsuitable for use as the DC enhancer in the formulation of the present invention owing to low solubility-dissolution constraints. Conversely, lower carbon chain length acids and alcohols such as C8 and C10 alcohols and C8 and C10 acids may be considered to be far too soluble in hydrocarbyl methyl siloxanes including caprylyl methicone, such that their performance as diffusion coefficient-enhancing excipients would be adversely affected. Similarly, long chain (for instance C14-C16) isopropyl esters are far too soluble in hydrocarbyl methyl siloxanes such as caprylyl methicone to allow performance as DC enhancers. For both of these classes of DC enhancer, up to 50% DC enhancer would be required to be at or near saturation in the non-volatile residual phase. In contrast, the C12-C14 acids and C12 alcohol have appropriate solubility in caprylyl methicone.\nConversely, from C16-C22 solubility is too low to allow adequate performance. […]"}},
  "data": [
    {"molecule": "CCC(=O)O[C@]1(C(=O)SCF)[C@H](C)C[C@H]2[C@@H]3C[C@H](F)C4=CC(=O)C=C[C@]4(C)[C@@]3(F)[C@@H](O)C[C@@]21C", "note": "[fluticasone propionate]", "values": [
      {"measurement": "saturated solubility in propylene glycol:glycerol mixtures", "setting": "[1]", "value": "decreases"},
      {"measurement": "saturated solubility in propylene glycol:glycerol:water mixtures", "setting": "[1]", "value": "decreases"},
      {"measurement": "saturated solubility in liquid silicones", "setting": "[1]", "value": "appropriately low"}
    ]},
    {"molecule": "C[C@@H]1C[C@H]2[C@@H]3CCC4=CC(=O)C=C[C@]4(C)[C@@]3(Cl)[C@@H](O)C[C@]2(C)[C@@]1(OC(=O)c1ccco1)C(=O)CCl", "note": "[mometasone furoate]", "values": [
      {"measurement": "saturated solubility in propylene glycol:glycerol mixtures", "setting": "[1]", "value": "decreases"},
      {"measurement": "saturated solubility in propylene glycol:glycerol:water mixtures", "setting": "[1]", "value": "decreases"},
      {"measurement": "saturated solubility in liquid silicones", "setting": "[1]", "value": "appropriately low"}
    ]},
    {"molecule": "myrystyl alcohol [C14 alcohol]", "values": [
      {"measurement": "amount to saturate caprylyl methicone (solubility)", "setting": "[2]", "value": 2.30, "unit": "%"},
      {"measurement": "amount to saturate propylene glycol (solubility)", "setting": "[2]", "value": 2.44, "unit": "%"}
    ]}
  ]
}
